The species entered for assay [1] is Homo sapiens. Kind of assay: Compound was tested for the inhibition of 4 uM ADP-induced platelet aggregation by using human platelet rich plasma. The class given is functional.
Assay [2] addresses T1, Prostacyclin receptor (Homo sapiens, UniProt P43119). Briefly: Compound was tested for prostacyclin (PGI-2) binding by displacement of [3H]iloprost from human platelets using conventional ligand binding assay. (Loss of bound radioactivity is the signal in a displacement assay; it reports binding, not function.)
The target in assay [3] is T1, Prostacyclin receptor. Briefly: Compound was tested for prostacyclin (PGI-2) binding by displacement of [3H]iloprost from human platelets. The settings on record: concentration not given here.

SMILES strings stand for the structures.

T1 sequence (P43119 whole entry): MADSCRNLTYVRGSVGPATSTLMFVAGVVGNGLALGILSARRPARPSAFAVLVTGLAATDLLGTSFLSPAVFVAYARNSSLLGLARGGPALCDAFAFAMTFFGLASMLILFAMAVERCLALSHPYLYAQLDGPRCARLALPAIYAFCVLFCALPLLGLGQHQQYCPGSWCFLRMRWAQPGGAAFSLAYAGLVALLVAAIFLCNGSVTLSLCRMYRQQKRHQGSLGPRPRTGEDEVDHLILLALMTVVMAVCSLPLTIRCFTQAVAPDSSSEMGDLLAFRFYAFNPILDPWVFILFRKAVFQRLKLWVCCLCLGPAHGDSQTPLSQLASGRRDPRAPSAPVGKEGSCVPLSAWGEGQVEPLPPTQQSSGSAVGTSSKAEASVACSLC

Take `O=C(O)COc1cccc2c1CCCC2CCCOC(c1ccccc1)c1ccccc1` (stereo unspecified): the IC50 (as a rule, the point on the concentration scale where inhibition reaches its midpoint) came out at 450 nM in assay [1] and 460 nM in assay [2].

Turning to `O=C(O)COc1cccc2c1CCCC2CCCCOC(c1ccccc1)c1ccccc1` (stereo unspecified), the results for the IC50 in assay [1] and in assay [2] were 11000 nM and 4200 nM, respectively.

As for `O=C(O)COc1cccc2c1CCC(CCCOC(c1ccccc1)c1ccccc1)C2` (stereo unspecified), the IC50 is over 20000 nM in assay [1] and over 10000 nM in assay [2]. Further, the inhibition (usually how much of the control response was suppressed) in assay [3] worked out at 25%.

In the case of `O=C(O)COc1cccc2c1CCC(CC(=O)NN(c1ccccc1)c1ccccc1)C2` (stereo unspecified), in assay [1], half-maximal inhibition (IC50) was put at 150 nM.

For `O=C(O)COc1cccc2c1CCC(CON=C(c1ccccc1)c1ccccc1)C2` (stereo unspecified), the IC50 in assay [1] and in assay [2] was 2400 nM throughout.

Regarding `O=C(O)COc1cccc2c1CCC(CCOC(c1ccccc1)c1ccccc1)C2` (stereo unspecified), the IC50 is over 20000 nM in assay [1] and 8000 nM in assay [2].

In the case of `O=C(O)COc1cccc2c1CCCC2CCON=C(c1ccccc1)c1ccccc1` (stereo unspecified), the IC50 in assay [1] turned out to be 250 nM; in assay [2], 210 nM.

For the compound `O=C(O)COc1cccc2c1CCCC2CCC(=O)NN(c1ccccc1)c1ccccc1` (stereo unspecified), the results for the IC50 in assay [1] and in assay [2] were 57 nM and 10 nM, respectively.

The record behind these values is ChEMBL document CHEMBL1128148, “Molecular design of novel PGI2 agonists without PG skeleton. III” (Bioorg Med Chem Lett, 1995).
